The source of these data is PubChem BioAssay (NCI).

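1) Cells in 96-well plates. 2) Compound, 48 h, 5 concentrations. 3) Linear interpolation between surrounding doses. 4) Unreached endpoint = highest concentration. GI50 marks 50% less growth. TGI: concentration producing complete growth inhibition.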 Where only a bound is given, the exact number is not on record here.

Among the test systems are 786-0 renal; ACHN renal; BT-549 breast; IGROV1 ovarian; LOX IMVI melanoma; NCI-H23 lung; NCI-H460 lung; NCI-H522 lung; SF-268 CNS; SK-MEL-28 melanoma.
Assay in all cases: inhibition of tumour cell growth, NCI panel, 48 h

For `C#CCC(Cc1cnc2nc(N)nc(N)c2n1)c1ccc(C(=O)N[C@@H](CCC(=O)O)C(=O)O)cc1` (stereo not given in full), the GI50 was less than 0.01 µM in the assay with 786-0 renal; less than 0.01 µM in the assay on ACHN renal; more than 100 µM in the assay with BT-549 breast; less than 0.01 µM in the assay on IGROV1 ovarian; less than 0.01 µM in the assay on LOX IMVI melanoma; less than 0.0174 µM in the assay with NCI-H23 lung. For the same compound, the GI50 in the assay with NCI-H460 lung was less than 0.01 µM; in the assay on NCI-H522 lung, less than 0.01 µM; in the assay with SF-268 CNS it was less than 0.01 µM; in the assay on SK-MEL-28 melanoma it was 0.0901 µM. The TGI in the assay with 786-0 renal, in the assay with ACHN renal, in the assay on BT-549 breast, with IGROV1 ovarian, with LOX IMVI melanoma and with NCI-H23 lung was more than 100 µM in each case. The TGI in the assay on NCI-H460 lung, in the assay on NCI-H522 lung, in the assay with SF-268 CNS and in the assay on SK-MEL-28 melanoma was more than 100 µM in each case.

Take `COC(=O)C1=C(C(=O)ON)C2C=CC1(C(Cc1ccccc1)Nc1ccccc1)O2` (stereo not given): the GI50 with 786-0 renal is 1.76 µM; in the assay on ACHN renal, 1.63 µM; in the assay with BT-549 breast, 2.07 µM; in the assay on IGROV1 ovarian, 1.87 µM; with LOX IMVI melanoma it was 1.74 µM; in the assay with NCI-H23 lung, 12 µM. In addition, the GI50 in the assay with NCI-H460 lung is 18 µM; in the assay with NCI-H522 lung, 1.45 µM; with SF-268 CNS it was 10.5 µM; with SK-MEL-28 melanoma, 1.92 µM. The TGI is 3.26 µM in the assay with 786-0 renal; 2.99 µM in the assay with ACHN renal; 4.87 µM with BT-549 breast; 3.49 µM with IGROV1 ovarian; 3.24 µM with LOX IMVI melanoma; 28.1 µM in the assay on NCI-H23 lung. Further, the TGI in the assay on NCI-H460 lung is 40.7 µM; in the assay on NCI-H522 lung, 2.98 µM; in the assay with SF-268 CNS it was 23 µM; in the assay with SK-MEL-28 melanoma, 3.66 µM.

On to `NC(=S)N/N=C(\Cc1nc2ccc(Cl)cc2[nH]c1=O)C(=O)Nc1ccc(Cl)cc1`, for which the TGI in the assay with 786-0 renal, in the assay on ACHN renal, in the assay on BT-549 breast, with IGROV1 ovarian, in the assay on LOX IMVI melanoma and in the assay on NCI-H23 lung was more than 100 µM each time. In addition, the TGI in the assay on NCI-H460 lung, with NCI-H522 lung, in the assay on SF-268 CNS and in the assay on SK-MEL-28 melanoma was more than 100 µM each time.

As for `CC(C)[C@H](CO)Nc1nc(Nc2ccc(C(=O)NCCNS(=O)(=O)c3cccc4c(N(C)C)cccc34)c(Cl)c2)c2ncn(C(C)C)c2n1`, the GI50 is 3.15 µM in the assay with 786-0 renal; 5.74 µM in the assay with ACHN renal; 1.96 µM in the assay on BT-549 breast; 2.62 µM with IGROV1 ovarian; 2.71 µM in the assay with LOX IMVI melanoma; 3 µM with NCI-H23 lung. The GI50 in the assay with NCI-H460 lung is 3.45 µM; in the assay on NCI-H522 lung it was 2.19 µM; in the assay with SF-268 CNS it was 2.47 µM; with SK-MEL-28 melanoma, 2.9 µM. The TGI in the assay with 786-0 renal is more than 100 µM; in the assay on ACHN renal, more than 100 µM; with BT-549 breast, 7.46 µM; in the assay on IGROV1 ovarian, more than 25.1 µM; in the assay on LOX IMVI melanoma it was more than 100 µM; in the assay with NCI-H23 lung, more than 36.2 µM. For the same compound, the TGI in the assay on NCI-H460 lung was more than 100 µM; with NCI-H522 lung, 6.1 µM; in the assay with SF-268 CNS, 34.2 µM; with SK-MEL-28 melanoma, more than 100 µM.

Take `Nc1c(Br)cc(Br)c2c1[nH]c(=O)c1ccccc12`: the GI50 is 2.72 µM in the assay with 786-0 renal; 3.18 µM in the assay with ACHN renal; 7.05 µM with BT-549 breast; 4.85 µM in the assay with IGROV1 ovarian; 20.5 µM in the assay with LOX IMVI melanoma; 20.7 µM in the assay with NCI-H23 lung. In addition, the GI50 was 3.33 µM in the assay on NCI-H460 lung, 50.9 µM in the assay with NCI-H522 lung, 9.72 µM in the assay with SF-268 CNS and more than 45.9 µM with SK-MEL-28 melanoma. For the same compound, the TGI in the assay with 786-0 renal was 7.83 µM; in the assay on ACHN renal, 10.4 µM; in the assay on BT-549 breast, 41 µM; with IGROV1 ovarian, 38.5 µM; in the assay with LOX IMVI melanoma it was more than 100 µM; in the assay with NCI-H23 lung it was more than 100 µM. Besides, the TGI was 14.6 µM in the assay on NCI-H460 lung, more than 100 µM with NCI-H522 lung, more than 69.3 µM in the assay on SF-268 CNS and more than 100 µM with SK-MEL-28 melanoma.

`Cc1cc2nc3c4cc(N)ccc4n(CCN(C)C)c3nc2cc1C`: the GI50 with 786-0 renal was 1.11 µM; in the assay on ACHN renal, 0.351 µM; in the assay on BT-549 breast, 2.23 µM; in the assay with IGROV1 ovarian it was 0.5 µM; with LOX IMVI melanoma, 0.461 µM; in the assay on NCI-H23 lung, 0.981 µM. For the same compound, the GI50 with NCI-H460 lung was 0.402 µM; in the assay on NCI-H522 lung, 0.721 µM; with SF-268 CNS it was 1.43 µM; in the assay with SK-MEL-28 melanoma it was 2.08 µM. The TGI with 786-0 renal came to 12.6 µM; in the assay with ACHN renal, 9.7 µM; in the assay with BT-549 breast, 8.73 µM; in the assay on IGROV1 ovarian it was 4.62 µM; with LOX IMVI melanoma, 3.27 µM; in the assay with NCI-H23 lung, 3.73 µM. The TGI worked out at 2.95 µM with NCI-H460 lung, 5.63 µM in the assay on NCI-H522 lung, 6.89 µM in the assay on SF-268 CNS and 5.77 µM with SK-MEL-28 melanoma.

`COc1cc(-c2nn(-c3cccc(NC(=O)Nc4cc(C(F)(F)F)cc(C(F)(F)F)c4)c3)cc2-c2ccncc2)ccc1Cl`: the GI50 in the assay with 786-0 renal was 0.892 µM; in the assay with ACHN renal it was 0.309 µM; in the assay with BT-549 breast, 1.26 µM; in the assay on IGROV1 ovarian, 0.592 µM; in the assay on LOX IMVI melanoma it was 0.783 µM; in the assay on NCI-H23 lung it was 0.59 µM. The GI50 in the assay on NCI-H460 lung is 0.366 µM; in the assay with NCI-H522 lung it was 0.356 µM; in the assay on SF-268 CNS, 0.896 µM; in the assay on SK-MEL-28 melanoma it was 0.758 µM. Besides, the TGI is 1.82 µM in the assay on 786-0 renal; 16.9 µM in the assay with ACHN renal; 3.45 µM in the assay on BT-549 breast; 2.34 µM with IGROV1 ovarian; 1.52 µM with LOX IMVI melanoma; 3.94 µM with NCI-H23 lung. Moreover, the TGI in the assay with NCI-H460 lung came out at 1.64 µM; with NCI-H522 lung, 1.43 µM; in the assay with SF-268 CNS, 2.3 µM; in the assay on SK-MEL-28 melanoma, 1.94 µM.
